Experimental data reported in patent US20040180959A1, “Gabapentin analogues for fibromy algia and concomitant disorders” (priority 2002, published 2004).

Key:
Assay type in all cases: in vivo
[1] = test system: CD-1 mice; assay: Tail Suspension Test (TST) in mice; details: 2 hours after treatment
Protocol: The anxiolytic and antidepressant activity of (3S, 4S)-(1-Aminomethyl-3,4-dimethyl-cyclopentyl)-acetic acid (“Compound A”) was assessed using the Tail Suspension Test (TST) in mice, and in the Water-lick (Vogel) Conflict Test (WLC) in rats. The Vogel test is a recognized test procedure for assessing the potential anxiolytic utility. The TST procedure is a behavior despair paradigm used to assess potential antidepressant activity.
The method consisted of suspending mice by a piece of cellophane tape attached to the distal end of the tail for 6 minutes. Animals (CD-1 mice, weighing 22 to 27 g, from Charles River Labs) were tested. The test apparatus was the TST-2™ (ITEM-Labo, Le Kremmlin-Bicetre Cedex, France). Data were analyzed with analysis of variance (ANOVA) and Tukey's Multiple Range Test or Student's t-test.
Compound A was dissolved in water and tested orally as a solution from 0.3 to 100 mg/kg in rats and 3 to 300 mg/kg in mice. Dosages are expressed as the active moiety and were administered in a volume of 1 mL/kg for rats and 10 mL/kg for mice.
The profile of typical […] activity in the TST consists of […]. Compound A and pregabalin were tested concurrently (PO) 2 hours after treatment. Compound A was administered at doses ranging from 3 to 100 mg/kg and pregabalin was tested from 3-300 mg/kg and served as positive control (Table 1). Compound A dose dependently increases immobility with the MED observed at the 3 mg/kg dosage and maximal effects were seen following the 30 mg/kg dose.

[2] = test system: mice; assay: Inverted Screen Test to assess coordination; details: doses up to 100 mg/kg PO, immediately following the TST, 1-minute trial
Protocol: Immediately following the TST, mice were also tested in the Inverted Screen Test to assess coordination. Animals were given a 1-minute trial in which they had to climb to the top of the inverted screen or to simply hang on and not fall off.

[3] = test system: Sprague-Dawley rats; assay: Rat model of footpad tactile allodynia from prior injection of acid into the gastrocnemius muscle; details: for Mean Paw Withdrawal Threshold before dose (g ± S.E.M.): after acid injection
Protocol: A rat model of persistent mechanical allodynia has been developed that is consistent with the muscle tenderness found in these patients. […] This model was utilized to evaluate compound A for its ability to inhibit allodynia.
On Day 0, male Sprague-Dawley rats (˜200 g body weight) in their dark cycle were placed in suspended wire-bottom cages and allowed to acclimate for 0.5 hours. […] Von Frey hairs were applied to the plantar surface for up to 6 seconds, and a flinching of the paw during that time frame was considered a positive response. After assessment, the right gastrocnemius muscle was shaved, swabbed with alcohol, and injected with 0.1 mL of 0.9% NaCl solution acidified to pH 4 with HCl. The injection was repeated on Day 5. Animals were manipulated with a dynamic plantar aesthesiometer (Ugo Basile, Comerio-Varese, Italy) on Days 6, 7, and 8 to facilitate induction of the allodynia. To screen the rats for the development of allodynia, the 15.1 g Von Frey hair was applied to the ipsilateral paw on Day 11. Positive responders from that test were included in the compound evaluation study. On Day 12 (the day of peak allodynia), animals were assigned into treatment groups, and then their ipsilateral paw withdrawal thresholds were determined to establish the allodynia (reduction in paw withdrawal threshold) compared to baseline values. Rats were then orally dosed with 10 mL/kg vehicle (0.5% hydroxypropyl-methylcellulose/0.2% Tween 80) or the indicated dose of compound A. Paw withdrawal thresholds were reassessed by Von Frey hairs in blinded fashion 2 hours after dosing for the dose-response study, and 2, 5, 8, and 24 hours after dosing in the time course experiment. The inhibition of allodynia was determined for each animal by dividing the increase in paw withdrawal threshold after treatment by the difference between baseline and pretreatment paw withdrawal values. This fraction was then converted to percent inhibition by multiplying by 100.

[4] = 10 mg/kg oral, 2 hours after treatment (Table II)
[5] = 10 mg/kg oral, 2 hr after dose (Table I)
[6] = 10 mg/kg oral, 5 hours after treatment
[7] = 10 mg/kg oral, 8 hours after treatment
[8] = 10 mg/kg oral, 24 hours after treatment

**Q.** Which “Immobility, % Percent of control” value ([1]; 3 mg/kg PO) does the source give for C[C@H]1CC(CN)(CC(=O)O)C[C@@H]1C [Compound A, (3S, 4S)-(1-Aminomethyl-3,4-dimethyl-cyclopentyl)-acetic acid] here?
**A.** 126.8 ± 7.0 %

**Q.** What about the “Power of Movement, % Percent of control” value ([1]; 3 mg/kg PO) of the same compound?
**A.** 70.7 ± 10.3%

**Q.** What about the “Immobility, % Percent of control” value ([1]; 10 mg/kg PO) of the same compound?
**A.** 143.7 ± 11.0 %

**Q.** And the “Power of Movement, % Percent of control” value ([1]; 10 mg/kg PO)?
**A.** 60.8 ± 11.4%

**Q.** What about the “Immobility, % Percent of control” value ([1]; 30 mg/kg PO) of the same compound?
**A.** 185.9 ± 7.0 %

**Q.** What about the “Power of Movement, % Percent of control” value ([1]; 30 mg/kg PO) of the same compound?
**A.** 46.4 ± 12.3 %

**Q.** And the “Immobility, % Percent of control” value ([1]; 100 mg/kg PO)?
**A.** 182.4 ± 5.9 %

**Q.** And the “Power of Movement, % Percent of control” value ([1]; 100 mg/kg PO)?
**A.** 50.5 ± 18.3 %

**Q.** What about the “Dose of maximal effects on immobility” value ([1]; PO) of the same compound?
**A.** 30 mg/kg

**Q.** And the “MED for increasing immobility” value ([1]; PO)?
**A.** 3 mg/kg

**Q.** And the “Power of movement parameter (effect in words)” value ([1]; PO)?
**A.** decreased at the 30 and 100 mg/kg dosages

**Q.** What about the Screen fall-off [2] of the same compound?
**A.** did not cause animals to fall off

**Q.** What about the “Mean Paw Withdrawal Threshold before dose (g ± S.E.M.)” value ([3]; 3 mg/kg group, before oral dose) of the same compound?
**A.** 6.3 ± 0.8 g

**Q.** What about the “Mean % Inhibition of Allodynia” value ([3]; 3 mg/kg oral, 2 hr after dose) of the same compound?
**A.** 33%

**Q.** And the “Mean Paw Withdrawal Threshold 2 hr after dose (g ± S.E.M.)” value ([3]; 3 mg/kg oral, 2 hr after dose)?
**A.** 11.4 ± 1.7 g

**Q.** And the “Mean Paw Withdrawal Threshold (g ± S.E.M.)” value ([3]; 10 mg/kg group, Prior to Treatment (Table II))?
**A.** 6.5 ± 0.9 g

**Q.** What about the “Mean Paw Withdrawal Threshold before dose (g ± S.E.M.)” value ([3]; 10 mg/kg group, before oral dose (Table I)) of the same compound?
**A.** 6.2 ± 1.0 g

**Q.** And the “Efficacy sustained throughout observation period after dosing” value ([3]; 10 mg/kg oral)?
**A.** ≥ 24 h

**Q.** And the “Mean % Inhibition of Allodynia” value [3, 4]?
**A.** 60% ± 10

**Q.** What about the “Mean Paw Withdrawal Threshold after treatment (g ± S.E.M.)” value [3, 4] of the same compound?
**A.** 16.0 ± 1.4 g

**Q.** What about the “Mean % Inhibition of Allodynia” value [3, 5] of the same compound?
**A.** 72%

**Q.** What about the “Mean Paw Withdrawal Threshold 2 hr after dose (g ± S.E.M.)” value [3, 5] of the same compound?
**A.** 17.4 ± 1.5 g

**Q.** What about the “Mean % Inhibition of Allodynia” value [3, 6] of the same compound?
**A.** 62% ± 10

**Q.** And the “Mean Paw Withdrawal Threshold after treatment (g ± S.E.M.)” value [3, 6]?
**A.** 15.2 ± 1.8 g

**Q.** What about the “Mean % Inhibition of Allodynia” value [3, 7] of the same compound?
**A.** 31% ± 12

**Q.** What about the “Mean Paw Withdrawal Threshold after treatment (g ± S.E.M.)” value [3, 7] of the same compound?
**A.** 9.9 ± 2.0 g

**Q.** What about the “Mean % Inhibition of Allodynia” value [3, 8] of the same compound?
**A.** 46% ± 17

**Q.** What about the “Mean Paw Withdrawal Threshold after treatment (g ± S.E.M.)” value [3, 8] of the same compound?
**A.** 13.3 ± 2.8 g

**Q.** What about the “Minimum effective dose for attenuating allodynia” value ([3]; oral, 2 hours after dosing) of the same compound?
**A.** 10 mg/kg
